Data reported in article PMC3583093 (Evidence-based Complementary and Alternative Medicine : eCAM, 2013).
Several values for one entry are separate records, joined by “and”; a condition that tells them apart may be missing. Identical values can stand only once. Entries after “also recorded” stand apart in the source; their conditions may differ. Like-named read-outs stand apart in the source and are kept apart here.

Tests used:
[1] = target: T1, murine TYR (Mus musculus, UniProt P11344); experiment: In vitro TYR activity assay with lysates of murine B16/F10 cells; assay type: biochemical
T1 sequence (P11344 19-533): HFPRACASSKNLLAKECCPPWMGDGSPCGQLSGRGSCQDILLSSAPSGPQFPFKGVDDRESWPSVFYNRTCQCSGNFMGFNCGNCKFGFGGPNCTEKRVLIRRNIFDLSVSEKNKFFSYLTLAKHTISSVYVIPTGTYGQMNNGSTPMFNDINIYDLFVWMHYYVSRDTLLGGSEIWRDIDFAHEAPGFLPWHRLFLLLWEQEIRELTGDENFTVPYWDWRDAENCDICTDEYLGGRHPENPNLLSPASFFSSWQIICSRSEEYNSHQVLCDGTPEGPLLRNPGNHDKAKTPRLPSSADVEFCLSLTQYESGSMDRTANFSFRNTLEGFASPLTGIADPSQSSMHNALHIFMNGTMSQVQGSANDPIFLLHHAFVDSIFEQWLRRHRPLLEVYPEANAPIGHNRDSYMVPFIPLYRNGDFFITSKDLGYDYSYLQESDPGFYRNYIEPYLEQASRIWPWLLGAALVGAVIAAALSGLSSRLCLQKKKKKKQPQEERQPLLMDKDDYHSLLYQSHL

[2] = tested on: human epidermal melanocytes (HEMs); experiment: Melanin synthesis in HEMs stimulated by L-tyrosine; assay type: cell-based; settings: 1.0 mM L-tyrosine, repeated treatment for 6 days
Procedure: (§1) Melanogenesis in HEMs was determined as previously described. Cells were pretreated with test material for 60 min, and then melanogenesis was stimulated by adding L-tyrosine (1.0 mM). Media were replaced every other day, and cells were cultured for 6 days. Intracellular melanin was extracted using 0.1 M NaOH at 60°C for 60 min, quantified by measuring absorbance at 490 nm, and normalized for protein content using the Bio-Rad DC assay. Cell viabilities were determined using 3-[4,5-dimethylthiazol-2-yl]-2,5-diphenyltetrazolium bromide.

[3] = target: T2, human TYR (Homo sapiens, UniProt P14679); experiment: In vitro TYR activity assay with lysates of HEK293-TYR cells; assay type: biochemical; settings: for IC50: lysates of HEK293-TYR cells, read-out: IC50 against human TYR activity (converted)
T2 construct: expressed in transfected cells
T2 sequence (P14679 19-529): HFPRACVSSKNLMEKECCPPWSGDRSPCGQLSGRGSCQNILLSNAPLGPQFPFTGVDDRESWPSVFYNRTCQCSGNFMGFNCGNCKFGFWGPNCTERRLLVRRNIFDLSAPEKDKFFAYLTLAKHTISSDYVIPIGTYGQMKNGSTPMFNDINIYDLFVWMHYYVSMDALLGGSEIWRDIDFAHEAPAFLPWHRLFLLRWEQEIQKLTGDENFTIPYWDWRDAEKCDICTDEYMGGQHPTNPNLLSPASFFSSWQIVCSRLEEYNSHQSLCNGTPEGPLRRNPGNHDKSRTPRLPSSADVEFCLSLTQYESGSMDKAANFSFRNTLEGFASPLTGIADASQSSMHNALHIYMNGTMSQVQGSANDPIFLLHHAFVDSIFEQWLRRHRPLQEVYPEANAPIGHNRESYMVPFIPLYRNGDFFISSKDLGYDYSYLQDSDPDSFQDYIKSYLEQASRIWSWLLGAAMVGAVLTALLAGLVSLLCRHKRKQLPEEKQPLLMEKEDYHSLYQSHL

[4] = tested on: human epidermal melanocytes (HEMs); experiment: Cell viability of HEMs (MTT); assay type: cell-based; settings: repeated treatment for 6 days
Procedure: as §1

[5] = target: T1, murine TYR; set-up: method as in Kim et al. [29]; settings: at 100 µM or 22.8 µg mL^−1; ref Kim et al. [29]; cited from earlier work
[6] = tested on: mushroom TYR; experiment: In vitro mushroom TYR activity assay; assay type: biochemical; settings: compared with human and murine TYRs
Procedure: In vitro TYR assays were run for human, murine, and mushroom TYRs. The lysates of HEK293-TYR cells were used as a human TYR preparation in most experiments. In some experiments, the lysates of murine B16/F10 cells (Figure 5), HEK293 cells, and HEMs (Figure 6) were used for comparative purposes. Mushroom TYR was purchased from Sigma-Aldrich. The reaction mixture (200 μL) containing either cell lysates (40 μg protein) or mushroom TYR (20 U) and 0.5 mM L-tyrosine, 1 μM DOPA in 100 mM sodium phosphate buffer (pH 6.8) was placed on a 96-well microplate and incubated at 37°C. The formation of DOPA chrome was monitored by measuring absorbance at 490 nm with a BioRad Model 680 microplate reader (Bio-Rad Laboratories, Inc., Hercules, CA, USA). Assays were also run in the absence of TYR enzyme to correct for potential nonenzymatic reactions. Samples and reference inhibitors were included in reaction mixtures at different concentrations.

[7] = target: T2, human TYR; experiment: In vitro TYR activity assay with lysates of HEMs; assay type: biochemical; settings: read-out: IC50 against human TYR activity (converted)
Procedure: Human epidermal melanocytes (HEMs), derived from moderately pigmented neonatal foreskins, were obtained from Cascade Biologics (Portland, OR, USA). Cells were grown in Medium 254 supplemented with human melanocyte growth supplement (Cascade Biologics) and antibiotics. HEK293 cells and murine melanoma B16/F10 cells (CRL-6475) were obtained from the American Type Culture Collection (Manassas, VA, USA). HEK 293 cells were transformed into HEK293-TYR cells stably expressing human TYR, as previously described. HEK293 cells, HEK293-TYR cells, and murine melanoma B16/F10 cells were cultured in growth medium (Dulbecco's minimum Eagle's medium (DMEM) containing 10% fetal bovine serum and antibiotics (100 U mL^−1 penicillin, 0.1 mg mL^−1 streptomycin, and 0.25 µg mL^−1 amphotericin B)). Cells were cultured at 37°C in a humidified atmosphere containing 5% CO2 and 95% air. Cells were lysed in ice-cold lysis buffer (10 mM Tris-Cl, pH 7.4, 120 mM NaCl, 25 mM KCl, 2.0 mM EGTA, 1.0 mM EDTA, and 0.5% Triton X-100 and protease inhibitor cocktail) and centrifuged at 13,000 ×g for 15 min at 4°C to obtain clear supernatants which were used as cell lysates.
In vitro TYR assays were run for human, murine, and mushroom TYRs. […] The formation of DOPA chrome was monitored by measuring absorbance at 490 nm with a BioRad Model 680 microplate reader (Bio-Rad Laboratories, Inc., Hercules, CA, USA). […]

[8] = target: T1, murine TYR; set-up: method as in Yanagihara et al. [30]; settings: ref Yanagihara et al. [30]; read-out: IC50 against murine TYR (converted); cited from earlier work
[9] = read-out: IC50 against murine TYR activity (converted)

IC50 [1, 9] [µM]	IC50 [3]	IC50 ([1]; dose-response curve at low concentration range, read-out: IC50 against murine TYR) [µM]	IC50 [7]	inhibition of human TYR activity ([3]; at 10~30 µg mL^−1, lysates of HEK293-TYR cells and HEMs)	SMILES	effect on melanin synthesis in HEMs [2]	cytotoxic effect in HEMs ([4]; at 100 µM)	inhibition of murine TYR [5] [%]	effect on melanin synthesis in HEMs ([2]; listed as Resveratrol)	effect on mushroom TYR activity [6]	IC50 [8] [µM]	concentration causing cytotoxicity in HEMs [4]
12.2	4.02 µM				O=C(O)/C=C/c1ccc(O)cc1 [p-coumaric acid, reference compound]	dose dependently attenuated	only a little cytotoxic effect					
4.38	1.71 µM and 1.7 µM	4.3	5.3 µM and 5.26 µM	80~90%	Oc1ccc(/C=C/c2cc(O)cc(O)c2)cc1 [resveratrol]	dose dependently attenuated; also recorded: reduce melanin synthesis in HEMs at subtoxic concentrations		32.7	inhibited melanin synthesis by human epidermal melanocytes at subtoxic concentrations	much smaller effect on mushroom TYR activity; also recorded: very low	10.1	above 10 µM
